Experimental data published in patent US7994196B2, “Indazole compound and pharmaceutical use thereof” (Mitsubishi Tanabe Pharma Corporation, priority 2004, dated 2011).

Tested on: MMP-9 production
Test: Determination of MMP-9 Production Inhibitory Activity (PMA-stimulated HEC3 cells, gelatin zymography)
Assay type: cell-based
Conditions: Endothelial cell; immortalized human vascular endothelial cells HEC3, PMA 10^-7 M stimulation, 24 hr; test substance at 10, 2, 0.4 and 0.08 μM; read-out: IC50 (MMP-9 production inhibitory rate)
Procedure: Immortalized human vascular endothelial cells HEC3 (supplied by Prof. Iijima of Nagoya University) were subcultured in RPMI1640 medium (Sigma Ltd.) containing 10% fetal calf serum.
The HEC3 cells (5×10^4 cells/well) were plated on a 24-well plate, and cultured in RPMI1640 medium containing 10% fetal calf serum for 24 hr. Each well was washed once with serum-free RPMI1640 medium. Then, RPMI1640 medium (250 μl/well) containing 0.05% fetal calf serum was added to each well, and the cells were further cultured for 2 hr.
The supernatant was removed, and the test substances (Example compounds shown in Table 1) diluted to various concentrations were added and incubated for 1 hr in 0.05% serum-containing RPMI1640 medium and the supernatant was removed again. A medium containing a test substance having the same concentration as in the pre-treatment and PMA (10^−7 M), which is a stimulant, was added at 250 μl/well, and the cells were further cultured for 24 hr.
After completion of the culture, water (50 μl) and 25 μl of SDS buffer (240 mM Tris-HCl (pH 6.8), 8% SDS, 40% glycerol) were added to the culture supernatant (25 μl), and the mixture (10 μl) was electrophoresed on a 7.5% polyacrylamide gel containing 0.1% gelatin.
After the electrophoresis, the gel was washed with Tris-HCl buffer (pH 7.5) containing 0.5% Triton X-100 (Sigma Ltd.) for 1 hr. The gel was immersed in an activation buffer (150 mM NaCl, 50 mM Tris-HCl (pH 7.5), 10 mM CaCl2) at 37° C. for 18 hr to activate MMP-9, and then stained with CBB. The obtained MMP-9 band was converted to numerical values by a densitometer (ATTO. Ltd.).
The MMP-9 production inhibitory rate by the test substance was calculated by the following equation. MMP-9 production inhibitory rate=100−100×{(test substance addition value−non-stimulation value)/(PMA stimulation value−non-stimulation value)}
The MMP-9 production inhibitory rates of the test substance at 10, 2, 0.4 and 0.08 μM were calculated, and IC50 value of the each test substance was determined using an analysis soft (RegExcel).

Compound	IC50 [nM]
COc1ccccc1C1(C#N)CCN(C(=O)Nc2n[nH]c3ccccc23)CC1 [Ex. 40]	840
N#CC1(c2cccc(C(F)(F)F)c2)CCN(C(=O)Nc2n[nH]c3ccccc23)CC1 [Ex. 42]	220
N#CC1(c2ccccc2F)CCN(C(=O)Nc2n[nH]c3ccccc23)CC1 [Ex. 43]	450
N#CC1(c2ccc(Cl)c(C(F)(F)F)c2)CCN(C(=O)Nc2n[nH]c3ccccc23)CC1 [Ex. 44]	450
N#CC1(c2cc(F)cc(F)c2)CCN(C(=O)Nc2n[nH]c3ccccc23)CC1 [Ex. 47]	350
N#CC1(c2ccc(Br)cc2Cl)CCN(C(=O)Nc2n[nH]c3ccccc23)CC1 [Ex. 48]	770

Same assay, conditions: Homo sapiens, Endothelial cell, 24 h, immortalized human vascular endothelial cells HEC3, PMA 10^-7 M stimulation, test substance at 10, 2, 0.4 and 0.08 μM, read-out: IC50 (MMP-9 production inhibitory rate)

Compound	IC50 [nM]
O=C(Nc1n[nH]c2ccccc12)N1CCC(O)(c2ccc(Cl)c(C(F)(F)F)c2)CC1 [Ex. 1]	790
O=C(Nc1n[nH]c2ccccc12)N1CCC(O)(c2cccc(C(F)(F)F)c2)CC1 [Ex. 3]	930
O=C(Nc1n[nH]c2ccccc12)N1CCC(O)(c2ccc(Cl)cc2)CC1 [Ex. 4]	400
O=C(Nc1n[nH]c2ccccc12)N1CCC(O)(c2cc(F)cc(C(F)(F)F)c2)CC1 [Ex. 6]	290
O=C(Nc1n[nH]c2ccccc12)N1CCC(O)(c2ccc(F)c(C(F)(F)F)c2)CC1 [Ex. 9]	340
Cc1ccc(C2(O)CCN(C(=O)Nc3n[nH]c4ccccc34)CC2)cc1C(F)(F)F [Ex. 10]	530
O=C(Nc1n[nH]c2ccccc12)N1CCC(O)(c2cc(F)cc(F)c2)CC1 [Ex. 12]	610
O=C(Nc1n[nH]c2ccccc12)N1CCC(O)(c2ccc(F)c(Cl)c2)CC1 [Ex. 15]	450
O=C(Nc1n[nH]c2ccccc12)N1CCC(O)(c2cccc(Cl)c2F)CC1 [Ex. 20]	320
O=C(Nc1n[nH]c2ccccc12)N1CCC(O)(c2ccc(Cl)c(Cl)c2)CC1 [Ex. 21]	380
O=C(Nc1n[nH]c2ccccc12)N1CCC(O)(c2cc(F)cc(Cl)c2)CC1 [Ex. 22]	330
Cc1cc(C2(O)CCN(C(=O)Nc3n[nH]c4ccccc34)CC2)ccc1Cl [Ex. 23]	450
O=C(Nc1n[nH]c2ccccc12)N1CCC(O)(c2cccc(Cl)c2)CC1 [Ex. 24]	210
O=C(Nc1n[nH]c2ccccc12)N1CCC(O)(c2ccc3c(c2)OCO3)CC1 [Ex. 27]	940
Cc1cccc(C2(O)CCN(C(=O)Nc3n[nH]c4ccccc34)CC2)c1 [Ex. 28]	360
N#Cc1cccc(C2(O)CCN(C(=O)Nc3n[nH]c4ccccc34)CC2)c1 [Ex. 29]	910
CSc1cccc(C2(O)CCN(C(=O)Nc3n[nH]c4ccccc34)CC2)c1 [Ex. 30]	300
CCc1cccc(C2(O)CCN(C(=O)Nc3n[nH]c4ccccc34)CC2)c1 [Ex. 31]	550
O=C(Nc1n[nH]c2ccccc12)N1CCC(O)(c2cc(Cl)ccc2Cl)CC1 [Ex. 33]	310

Compound	IC50 [nM]
O=C(Nc1n[nH]c2ccccc12)N1CCC(O)(c2cc(C(F)(F)F)cc(C(F)(F)F)c2)CC1 [Ex. 34]	430
O=C(Nc1n[nH]c2ccccc12)N1CCC(O)(c2cc(C(F)(F)F)ccc2F)CC1 [Ex. 35]	720
O=C(Nc1n[nH]c2ccccc12)N1CCC(O)(c2cc(C(F)(F)F)ccc2Cl)CC1 [Ex. 36]	540
N#CC1(c2ccc(Br)s2)CCN(C(=O)Nc2n[nH]c3ccccc23)CC1 [Ex. 46]	550
O=C(Nc1n[nH]c2ccccc12)N1CC=C(c2ccccc2)CC1 [Ex. 49]	260
O=C(Nc1n[nH]c2ccccc12)N1CC=C(c2ccc(F)cc2)CC1 [Ex. 50]	1300
O=C(Nc1n[nH]c2ccccc12)N1CC=C(c2ccccc2F)CC1 [Ex. 52]	320
O=C(Nc1n[nH]c2ccccc12)N1CC=C(c2ccc(F)c(Cl)c2)CC1 [Ex. 53]	240
O=C(Nc1n[nH]c2ccccc12)N1CC=C(c2cccc(F)c2)CC1 [Ex. 55]	130
O=C(Nc1n[nH]c2ccccc12)N1CC=C(c2cccc(F)c2F)CC1 [Ex. 56]	230
O=C(Nc1n[nH]c2ccccc12)N1CC=C(c2ccc(Cl)s2)CC1 [Ex. 58]	120
Cc1ccsc1C1=CCN(C(=O)Nc2n[nH]c3ccccc23)CC1 [Ex. 59]	210
O=C(Nc1n[nH]c2ccccc12)N1CC=C(c2cccs2)CC1 [Ex. 60]	130
O=C(Nc1n[nH]c2ccccc12)N1CC=C(c2cccc(C(F)(F)F)c2)CC1 [Ex. 61]	100
COc1ccc(C2=CCN(C(=O)Nc3n[nH]c4ccccc34)CC2)cc1OC [Ex. 62]	690
CN(C)c1cccc(C2=CCN(C(=O)Nc3n[nH]c4ccccc34)CC2)c1 [Ex. 63]	360
O=C(Nc1n[nH]c2ccccc12)N1CCc2c([nH]c3ccccc23)C1 [Ex. 64]	120
Cn1c2c(c3ccccc31)CCN(C(=O)Nc1n[nH]c3ccccc13)C2 [Ex. 65]	160
COCCn1c2c(c3ccccc31)CCN(C(=O)Nc1n[nH]c3ccccc13)C2 [Ex. 66]	630

Compound	IC50 [nM]
O=C(Nc1n[nH]c2ccccc12)N1CCc2c([nH]c3ccc(C(F)(F)F)cc23)C1 [Ex. 69]	160
O=C(Nc1n[nH]c2ccccc12)N1CCc2c([nH]c3ccc(F)cc23)C1 [Ex. 70]	60
O=C(Nc1n[nH]c2ccccc12)N1CCc2c([nH]c3cc(F)ccc23)C1 [Ex. 71]	140
O=C(Nc1n[nH]c2ccccc12)N1CCc2c([nH]c3ccc(Cl)cc23)C1 [Ex. 72]	100
COc1ccc2[nH]c3c(c2c1)CCN(C(=O)Nc1n[nH]c2ccccc12)C3 [Ex. 73]	90
O=C(Nc1n[nH]c2ccccc12)N1CCc2c([nH]c3ccc(O)cc23)C1 [Ex. 74]	150
O=C(Nc1n[nH]c2ccccc12)N1CCc2c([nH]c3cc(Cl)ccc23)C1 [Ex. 75]	110
O=C(Nc1n[nH]c2ccccc12)N1CCc2c([nH]c3cc(C(F)(F)F)ccc23)C1 [Ex. 76]	240
O=C(Nc1n[nH]c2ccccc12)N1CCc2c([nH]c3cccc(F)c23)C1 [Ex. 77]	50
O=C(Nc1n[nH]c2ccccc12)N1CCc2c([nH]c3cccc(Cl)c23)C1 [Ex. 78, 5-chloro-1,3,4,9-tetrahydro-β-carboline-2-carboxylic acid (1H-indazol-3-yl)amide]	280
Cc1cccc2c3c([nH]c12)CN(C(=O)Nc1n[nH]c2ccccc12)CC3 [Ex. 79, 8-methyl-1,3,4,9-tetrahydro-β-carboline-2-carboxylic acid (1H-indazol-3-yl)amide]	160
O=C(Nc1n[nH]c2ccccc12)N1CCc2c(sc3ccccc23)C1 [Ex. 80, 3,4-dihydro[1]benzothieno[2,3-c]pyridine-2-carboxylic acid (1H-indazol-3-yl)amide]	250
Cc1ccc2[nH]c3c(c2c1)CCN(C(=O)Nc1n[nH]c2ccccc12)C3 [Ex. 81, 6-methyl-1,3,4,9-tetrahydro-β-carboline-2-carboxylic acid (1H-indazol-3-yl)amide]	100
O=C(Nc1n[nH]c2ccccc12)N1CCc2c([nH]c3cc(Cl)c(F)cc23)C1 [Ex. 82, 7-chloro-6-fluoro-1,3,4,9-tetrahydro-β-carboline-2-carboxylic acid (1H-indazol-3-yl)amide]	100
O=C(Nc1n[nH]c2ccccc12)N1CCc2c([nH]c3cc(Cl)c(C(F)(F)F)cc23)C1 [Ex. 83, 7-chloro-6-(trifluoromethyl)-1,3,4,9-tetrahydro-β-carboline-2-carboxylic acid (1H-indazol-3-yl)amide]	420
O=C(Nc1n[nH]c2ccccc12)N1CCN(c2ccc(Cl)c(C(F)(F)F)c2)CC1 [Ex. 93, 4-[4-chloro-3-(trifluoromethyl)phenyl]-1-piperazinecarboxylic acid (1H-indazol-3-yl)amide]	170
O=C(Nc1n[nH]c2ccccc12)N1CCN(c2ccc(F)c(C(F)(F)F)c2)CC1 [Ex. 94, 4-[4-fluoro-3-(trifluoromethyl)phenyl]-1-piperazinecarboxylic acid (1H-indazol-3-yl)amide]	340
COc1ccc(N2CCN(C(=O)Nc3n[nH]c4ccccc34)CC2)cc1C(F)(F)F [Ex. 95, 4-[4-methoxy-3-(trifluoromethyl)phenyl]-1-piperazinecarboxylic acid (1H-indazol-3-yl)amide]	510
O=C(Nc1n[nH]c2ccccc12)N1CCN(c2cc(F)cc(C(F)(F)F)c2)CC1 [Ex. 97, 4-[3-fluoro-5-(trifluoromethyl)phenyl]-1-piperazinecarboxylic acid (1H-indazol-3-yl)amide]	210
